Data published in patent EP4803523A1, “FUSED HETEROARYL COMPOUND, PREPARATION METHOD THEREFOR, AND USE THEREOF IN MEDICINE” (Jiangsu Hengrui Pharmaceuticals Co., Ltd., priority 2023, dated 2025).

Assays:
MKN1 = experiment: 3D cell proliferation inhibition assay (CellTiter-Glo 3D); assay type: cell-based; details: Homo sapiens, MKN-1, 120 h; MKN1 cells, KRAS Amp, 3D culture, 5 days with compound
Description: (§1) This experiment uses the cells listed in the table below to evaluate the inhibitory effects of the compounds on the proliferation of KRAS mutant or KRAS amplified cells.
(§2) On the first day of the experiment, cells that were growing well and had reached 70%-80% confluence were digested, resuspended in culture medium, and the cell density was adjusted to the desired level. In a U-shaped low-attachment 96-well plate (Corning, 7007), 90 µL of cell suspension was added per well, with the cell density as shown in the table above. The cell plate was centrifuged at 2500 rpm for 5 minutes and then placed in an incubator for 24 hours of culture. On the second day, the 20 mM test compound dissolved in DMSO was diluted with DMSO to the first concentration of 2 or 0.2 mM, and then serially diluted in a 5-fold gradient to obtain 9 concentration points, with the control well containing DMSO. The serially diluted compound was then further diluted 20-fold with culture medium. 10 µL of the test compound diluted in culture medium was added to each well of the cell plate. The final concentrations of the compound were 9 points in a 5-fold serial dilution starting from 10 or 1 µM. Cell wells containing 0.5% DMSO were set as vehicle control wells, and wells containing only culture medium and 0.5% DMSO were set as blank control wells. The cell plate was centrifuged at 2000 rpm for 3 minutes and then placed in an incubator for 5 days of culture. On the seventh day, the 96-well cell culture plate was taken out, and 50 µL of the luminescent cell viability detection reagent, CellTiter-Glo® 3D Cell Viability Assay (Promega, G9683), was added to each well. After shaking at room temperature for 25 minutes, the mixture was pipetted up and down to mix, and 100 µL was transferred from each well to a white, opaque-bottom OptiPlate™-96 well plate (PerkinElmer, 6005290). The luminescence signal value was read using a multimode microplate reader (PerkinElmer, EnVision2105).
(§3) The inhibition rate was calculated using the following formula: Inhibition rate = (Luminescence value vehicle control well - Luminescence value test compound)/(Luminescence value vehicle control well - Luminescence value blank control well) × 100%. The IC50 values of the compound inhibitory activity were calculated using Graphpad Prism software. Table 1. Data of inhibitory activity on 3D cell proliferation (unit: nM)

GP2d = experiment: as above; assay type: cell-based; details: GP2d, 120 h, GP2d cells, KRAS G12D, 3D culture, 5 days with compound
Description: as §1, §2, §3

H358 = experiment: as above; assay type: cell-based; details: Homo sapiens, NCI-H358, 120 h; H358 cells, KRAS G12C, 3D culture, 5 days with compound
Description: as §1, §2, §3

SW620 = experiment: as above; assay type: cell-based; details: Homo sapiens, SW-620, 120 h; SW620 cells, KRAS G12V, 3D culture, 5 days with compound
Description: as §1, §2, §3

AGS = experiment: as above; assay type: cell-based; details: Homo sapiens, 120 h; AGS cells, KRAS G12D, 3D culture, 5 days with compound
Description: as §1, §2, §3

AsPC-1 = experiment: as above; assay type: cell-based; details: Homo sapiens, ASPC1, 120 h; AsPC-1 cells, KRAS G12D, 3D culture, 5 days with compound
Description: as §1, §2, §3

in vivo = details: both, SD, rat, plasma, po
Description: Using SD rats as the test animals, the plasma concentrations of the example compounds at different time points were determined by LC-MS/MS following oral gavage (i.g.) administration. The pharmacokinetic behaviours of the compounds of the present disclosure in rats were investigated, and their pharmacokinetic profiles were evaluated.
Blood samples (0.2 mL) were collected from the orbit before administration and at 0.25, 0.5, 1.0, 2.0, 4.0, 6.0, 8.0, 11.0, and 24.0 hours after administration. The samples were placed in EDTA-K2 anticoagulant tubes, centrifuged at 10,000 rpm for 2 minute (4°C), and the plasma was separated within 1 hour and stored at -20°C or -80°C until analysis. The entire process from blood collection to centrifugation was performed in ice bath conditions.
The mixture was vortexed and then centrifuged at 4000 rpm for 15 minutes; the supernatant was taken for LC-MS/MS analysis. […] The mixture was vortexed and then centrifuged at 3700 rpm for 10 minutes; the supernatant was taken for LC-MS/MS analysis.
The mixture was vortexed and then centrifuged at 4000 rpm for 15 minutes; the supernatant was taken for LC-MS/MS analysis. […] The mixture was vortexed and then centrifuged at 4000 rpm for 15 minutes; the supernatant was taken for LC-MS/MS analysis.

[1] = Pharmacokinetic evaluation, mouse experiment (oral gavage, plasma LC-MS/MS); assay type: in vivo; details: balb/c nude mice, female, oral gavage (i.g.), 20.0 mg/kg
Description: Using balb/c nude mice as the test animals, the plasma concentrations of the example compounds at different time points were determined by LC-MS/MS following oral gavage (i.g.) administration. The pharmacokinetic behaviours of the compounds of the present disclosure in mice were investigated, and their pharmacokinetic profiles were evaluated.
Nine balb/c nude mice, female, were provided by Beijing Vital River Laboratory Animal Technology Co., Ltd. (Production License Number: SCXK(Zhejiang) 2024-0001).
A given amount of the test compound was weighed and formulated with 5% DMF + 45% PG + 50% (10% HS15-pH7.4 buffer) to prepare a 2.0 mg/mL clear and colourless solution.
The administration dose was 20.0 mg/kg, and the administration volume was 10 mL/kg.
Blood samples (0.1 ml) were collected from the orbit before administration and at 0.25, 0.5, 1.0, 2.0, 4.0, 6.0, 8.0, 11.0, and 24.0 hours after administration. The samples were placed in EDTA-K2 anticoagulant tubes, centrifuged at 10,000 rpm for 1 minute (4°C), and the plasma was separated within 1 hour and stored at -20°C or -80°C until analysis. The entire process from blood collection to centrifugation was performed in ice bath conditions. Food was provided 2 hours after administration.
The concentration of the test compound in mouse plasma after administration was determined as follows: 20 µL of the plasma sample collected at each time point after administration was taken, and 200 µL of internal standard acetonitrile solution (containing 20 ng/mL verapamil) was added. The mixture was vortexed and then centrifuged at 4000 rpm for 15 minutes; the supernatant was taken for LC-MS/MS analysis.

IC50 (MKN1) [nM]	IC50 (H358) [nM]	IC50 (SW620) [nM]	IC50 (AGS) [nM]	IC50 (AsPC-1) [nM]	Compound	IC50 (GP2d) [nM]	also measured
1.3	2.78	3.4	5.03	8.36	N#Cc1c(N)sc2c(F)ccc(-c3c4c(c5cnc(OCC67CCCN6CC(=C(F)F)C7)nc5c3F)COC4)c12 (single isomer, unassigned) [Example 44A]	2.59	–
6.9	–	7.9	9.12	14.7	N#Cc1c(N)sc2c(F)ccc(-c3c4c(c5cnc(OCC67CCCN6CC(=CF)C7)nc5c3F)COC4)c12 (centres unmarked) [Example 15, 2-Amino-7-fluoro-4-(5-fluoro-3-((2-(fluoromethylene)tetrahydro-1H-pyrrolizin-7a(5H)-yl)methoxy)-7,9-dihydrofuro[3,4-f]quinazolin-6-yl)benzo[b]thiophene-3-carbonitrile]	1.71	–
–	8.04	10.1	–	–	N#Cc1c(N)sc2c(F)ccc(-c3c4c(c5c(C6CC6)nc(OC[C@@]67CCCN6C[C@H](F)C7)nc5c3F)COC4)c12 [Example 36, 2-Amino-4-(1-cyclopropyl-5-fluoro-3-(((2R,7aS)-2-fluorotetrahydro-1H-pyrrolizin-7a(5H)-yl)methoxy)-7,9-dihydrofuro[3,4-f]quinazolin-6-yl)-7-fluorobenzo[b]thiophene-3-carbonitrile]	–	–
4	4.76	12.7	4.07	7.65	N#Cc1c(N)sc2c(F)ccc(-c3c4c(c5cnc(OCC6(CN7CCC(=CF)CC7)CC6)nc5c3Cl)COC4)c12 [Example 39, 2-Amino-4-(5-chloro-3-((1-((4-(fluoromethylene)piperidin-1-yl)methyl)cyclopropyl)methoxy)-7,9-dihydrofuro[3,4-f]quinazolin-6-yl)-7-fluorobenzo[b]thiophene-3-carbonitrile]	2.95	–
8.2	8.85	12.4	–	–	N#Cc1c(N)sc2c(F)ccc(-c3c4c(c5cnc(OCC67CCCN6CC(=C(F)F)C7)nc5c3F)COC4)c12 (centres unmarked) [Example 27, 2-Amino-4-(3-((2-(difluoromethylene)tetrahydro-1H-pyrrolizin-7a(5H)-yl)methoxy)-5-fluoro-7,9-dihydrofuro[3,4-f]quinazolin-6-yl)-7-fluorobenzo[b]thiophene-3-carbonitrile]	6.61	–

Compound	IC50 (MKN1) [nM]	IC50 (H358) [nM]	IC50 (SW620) [nM]	IC50 (AGS) [nM]	IC50 (AsPC-1) [nM]	IC50 (GP2d) [nM]	also measured
C[C@@H](O)CN1CC2CCC(C1)N2c1nc(OCC2(CN3CCC(=C(F)F)CC3)CC2)nc2c(F)c(-c3ncc(F)c4sc(N)c(C#N)c34)c3c(c12)COC3 [Example 2, 2-amino-4-(3-((1-((4-(difluoromethylene)piperidin-1-yl)methyl)cyclopropyl)methoxy)-5-fluoro-1-(3-((R)-2-hydroxypropyl)-3,8-diazabicyclo[3.2.1]oct-8-yl)-7,9-dihydrofuro[3,4-f]quinazolin-6-yl)-7-fluorothieno[3,2-c]pyridine-3-carbonitrile]	–	–	–	2.36	6.18	1.79	AUC(0-t) (in vivo; 20 mg/kg): 5170 ng·h/mL; CL/F (in vivo; 20 mg/kg): 65.5 mL/min/kg; Cmax (in vivo; 20 mg/kg): 377 ng/mL; Vd/F (in vivo; 20 mg/kg): 28 L/kg; half-life (in vivo; 20 mg/kg): 5.52 h; AUC(0-t) (in vivo; 40 mg/kg): 17600 ng·h/mL; CL/F (in vivo; 40 mg/kg): 36.7 mL/min/kg; Cmax (in vivo; 40 mg/kg): 1170 ng/mL; Vd/F (in vivo; 40 mg/kg): 19.6 L/kg; half-life (in vivo; 40 mg/kg): 6.7 h; Vd/F ([1]; read-out: Apparent volume of distribution Vz/F): 9.07 L/kg; AUC(0-t) ([1]; read-out: Area under the curve AUC0-t): 9100 ng·h/mL; CL/F ([1]; read-out: Clearance CL/F): 36.5 mL/min/kg; half-life ([1]; read-out: Half life T1/2 (converted)): 2.87 h; Cmax ([1]; read-out: Plasma concentration Cmax): 1060 ng/mL
